Reference: US20240318160A1 (Wisconsin Alumni Research Foundation, priority 2023, published 2024)

Columns and labels:
Format in all cases: biochemical
[1] = system: PAL^F140H mutants (JaPAL^F140H, EmoPAL^F134H, BdPAL^F137H, SbPAL^F135H); assay: TAL and PAL enzyme kinetics, group of enzymes; conditions: PAL activity, on average
Protocol: (§1) The kinetic parameters of the recombinant enzymes were determined using HPLC. Reaction mixtures containing 100 mM Tris-HCl (pH 8.5), 1% glycerol, and purified enzyme (0.15 μg for PAL assay and 1 μg for TAL assay) in a 50 μl total volume were preincubated for 3 min at 30° C. […] After 10 min and 20 min incubations for PAL and TAL assay, respectively, at 30° C., the reaction was terminated by addition of 6N acetic acid (10 μl). […] The products were quantified using calibration curves generated using authentic standards. Non-linear hyperbolic regression analyses were conducted using the Excel Solver tool to calculate Km and Vmax values.

grass PTAL enzymes = assay: TAL and PAL enzyme kinetics, group of enzymes; conditions: PAL activity (L-Phe), range over grass PTAL enzymes
Protocol: as §1

[2] = system: PTAL^H140F mutants (SbPTAL^H123F, BdPTAL^H123F, SaPTAL-a^H118F, SaPTAL-b^H126F, EmoPTAL^H127F, JaPTAL^H125F); assay: TAL and PAL enzyme kinetics, group of enzymes; conditions: on average
Description: To experimentally test the role of His 140 in the acquisition of TAL activity, we next conducted site-directed mutagenesis on the PAL and PTAL enzymes of grasses and non-grass graminids characterized above and analyzed their effects on TAL activity. For the PAL enzymes, the residue corresponding to Phe 140 was converted to His to generate JaPAL^F140H EmoPAL^F134H, BdPAL^F137H, and SbPAL^F135H. […] For the PTAL enzymes, the residue corresponding to His 140 was converted to Phe to generate SbPTAL^H123F, BdPTAL^H123F, SaPTAL-a^H118F, SaPTAL-b^H126F, EmoPTAL^H127F, and JaPTAL^H125F. […] Thus, unlike in the bacterial TAL enzyme (Watts et al., 2006), other residues besides the His 140 are likely important for the acquisition of strong TAL activity in the PTAL enzymes of grasses and closely-related non-grass graminids.
The kinetic parameters of the recombinant enzymes were determined using HPLC. Reaction mixtures containing 100 mM Tris-HCl (pH 8.5), 1% glycerol, and purified enzyme (0.15 μg for PAL assay and 1 μg for TAL assay) in a 50 μl total volume were preincubated for 3 min at 30° C. PAL and TAL reactions were started by addition of 50 μl substrate solution prepared with 0-4 mM L-Phe and 0-2 mM L-Tyr. After 10 min and 20 min incubations for PAL and TAL assay, respectively, at 30° C., the reaction was terminated by addition of 6N acetic acid (10 μl). […] The products were quantified using calibration curves generated using authentic standards. Non-linear hyperbolic regression analyses were conducted using the Excel Solver tool to calculate Km and Vmax values.

[3] = system: Joinvillea ascendens JaPAL^F140H_MUT8 variant V500I; assay: TAL and PAL enzyme kinetics; conditions: PAL assay (L-Phe), pH 8.5, 30° C.
Protocol: (§2) To determine which of the 8 circle residues are essential in the conversion of PAL enzymes to PTAL enzymes (FIG. 3C), we mutated, one by one, each one of these 8 residues back to the PAL type in JaPAL^F140H_MUT8 and determined their effects on catalytic efficiency.
(§3) A mixture containing 100 mM Tris-HCl (pH 8.5), 1% glycerol, and purified enzyme in a total volume of 50 μl was preincubated for 3 min at 30° C. […] The reactions were terminated by addition of 6N acetic acid (10 μl).
as §1

[4] = system: Joinvillea ascendens JaPAL^F140H_MUT8 variant I122S (in Table 3; I112S in text); assay: TAL and PAL enzyme kinetics; conditions: PAL assay (L-Phe), pH 8.5, 30° C.
Protocol: as §2, §3, §1

[5] = system: Joinvillea ascendens JaPAL^F140H_MUT8 variant S267A; assay: TAL and PAL enzyme kinetics; conditions: PAL assay (L-Phe), pH 8.5, 30° C.
Protocol: as §2, §3, §1

[6] = system: Joinvillea ascendens JaPAL^F140H_MUT8 variant A448S; assay: TAL and PAL enzyme kinetics; conditions: PAL assay (L-Phe), pH 8.5, 30° C.
Protocol: as §2, §3, §1

[7] = system: Joinvillea ascendens JaPAL^F140H_MUT8 variant L138I; assay: TAL and PAL enzyme kinetics; conditions: PAL assay (L-Phe), pH 8.5, 30° C.
Protocol: as §2, §3, §1

[8] = system: Joinvillea ascendens JaPAL^F140H_MUT8 variant I102V; assay: TAL and PAL enzyme kinetics; conditions: PAL assay (L-Phe), pH 8.5, 30° C.
Protocol: as §2, §3, §1

[9] = system: Joinvillea ascendens JaPAL^F140H_MUT8 variant T444P; assay: TAL and PAL enzyme kinetics; conditions: PAL assay (L-Phe), pH 8.5, 30° C.
Protocol: as §2, §3, §1

[10] = system: Joinvillea ascendens JaPAL^F140H_MUT8 variant G121A; assay: TAL and PAL enzyme kinetics; conditions: PAL assay (L-Phe), pH 8.5, 30° C.
Protocol: as §2, §3, §1

[11] = system: Streptochaeta angustifolia SaPTAL-a, wild type; assay: TAL and PAL enzyme kinetics; conditions: PAL assay (L-Phe), pH 8.5, 30° C.
Protocol: as §3, §1

[12] = system: Sorghum bicolor SbPAL, wild type; assay: TAL and PAL enzyme kinetics; conditions: PAL assay (L-Phe), pH 8.5, 30° C.
Protocol: as §3, §1

[13] = system: Ecdeiocolea monostachya EmoPTAL variant H127F (EmoPTAL^H127F); assay: TAL and PAL enzyme kinetics; conditions: PAL assay (L-Phe), pH 8.5, 30° C.
Protocol: as §3, §1

[14] = system: Ecdeiocolea monostachya EmoPAL, wild type; assay: TAL and PAL enzyme kinetics; conditions: PAL assay (L-Phe), pH 8.5, 30° C.
Protocol: as §3, §1

[15] = system: Joinvillea ascendens JaPTAL (SEQ ID NO: 27) variant H125F/I97S (JaPTAL^H125F_I97S); assay: TAL and PAL enzyme kinetics; conditions: PAL assay (L-Phe), pH 8.5, 30° C.
Protocol: as §3, §1

With `N[C@@H](Cc1ccccc1)C(=O)O` [L-Phe, phenylalanine] the “Km toward Phe relative to corresponding wild-type enzymes” value [1] was 35 fold, the Km (grass PTAL enzymes) was 150 to 227 µM and the “kcat relative to wild type” value ([2]; PAL activity (Phe)) was 0.25 fold. For the same compound, the “Km toward Phe relative to corresponding wild-type enzymes” value ([2]; PAL activity) was 0.04 fold, the Km [3] was 151 ± 3.7 µM and the kcat [3] was 0.82 ± 0.02 s⁻¹. It also gave a kcat/Km [3] of 5450 ± 140 M⁻¹ s⁻¹, a Km [4] of 2290 ± 344 µM and a kcat [4] of 0.29 ± 0.04 s⁻¹. It also gave a kcat/Km [4] of 310 ± 0 M⁻¹ s⁻¹, a Km [5] of 317 ± 6.6 µM and a kcat [5] of 0.85 ± 0.04 s⁻¹. It also gave a kcat/Km [5] of 2670 ± 60 M⁻¹ s⁻¹, a Km [6] of 168 ± 11.3 µM and a kcat [6] of 0.80 ± 0.03 s⁻¹. The kcat/Km [6] was 4790 ± 430 M⁻¹ s⁻¹, the Km [7] was 74.3 ± 1.1 µM and the kcat [7] was 0.66 ± 0.01 s⁻¹. The kcat/Km [7] was 8860 ± 10 M⁻¹ s⁻¹, the Km [8] was 232 ± 3.5 µM and the kcat [8] was 0.74 ± 0.01 s⁻¹. It also gave a kcat/Km [8] of 3190 ± 80 M⁻¹ s⁻¹, a Km [9] of 192 ± 3.6 µM and a kcat [9] of 0.90 ± 0.05 s⁻¹. The kcat/Km [9] was 4700 ± 220 M⁻¹ s⁻¹, the Km [10] was 58.1 ± 3.4 µM and the kcat [10] was 0.57 ± 0.02 s⁻¹. For the same compound, the kcat/Km [10] was 9880 ± 310 M⁻¹ s⁻¹, the Km [11] was 154 ± 3.7 µM and the kcat [11] was 0.39 ± 0.01 s⁻¹. For the same compound, the kcat/Km [11] was 2510 ± 30 M⁻¹ s⁻¹, the Km [12] was 43.9 ± 2.7 µM and the kcat [12] was 0.97 ± 0.02 s⁻¹. The kcat/Km [12] was 22050 ± 1080 M⁻¹ s⁻¹, the Km [13] was 3.6 ± 0.5 µM and the kcat [13] was 0.12 ± 0.00 s⁻¹. The kcat/Km [13] was 32620 ± 2120 M⁻¹ s⁻¹, the Km [14] was 27.7 ± 1.9 µM and the kcat [14] was 1.23 ± 0.02 s⁻¹. The kcat/Km [14] was 44700 ± 2390 M⁻¹ s⁻¹, the Km [15] was 9.42 ± 0.8 µM and the kcat [15] was 0.02 ± 0.00 s⁻¹.
